Test results: PMC9386018, “A lymphatic-absorbed multi-targeted kinase inhibitor for myelofibrosis therapy” (Nature Communications, 2022)
Where “and” joins values, the source holds several entries; their conditions need not be identical. Equal values may be shown once.

Legend:
[1] = molecular target: T1, Target kinase isoforms (PI3K, mTOR, RAF, MEK) (Homo sapiens, UniProt O00329); experiment: Target kinase isoforms 10-point IC50 determination (Supplementary Fig. 7); assay type: biochemical; conditions: PI3K delta
T1 sequence (O00329 1-1044): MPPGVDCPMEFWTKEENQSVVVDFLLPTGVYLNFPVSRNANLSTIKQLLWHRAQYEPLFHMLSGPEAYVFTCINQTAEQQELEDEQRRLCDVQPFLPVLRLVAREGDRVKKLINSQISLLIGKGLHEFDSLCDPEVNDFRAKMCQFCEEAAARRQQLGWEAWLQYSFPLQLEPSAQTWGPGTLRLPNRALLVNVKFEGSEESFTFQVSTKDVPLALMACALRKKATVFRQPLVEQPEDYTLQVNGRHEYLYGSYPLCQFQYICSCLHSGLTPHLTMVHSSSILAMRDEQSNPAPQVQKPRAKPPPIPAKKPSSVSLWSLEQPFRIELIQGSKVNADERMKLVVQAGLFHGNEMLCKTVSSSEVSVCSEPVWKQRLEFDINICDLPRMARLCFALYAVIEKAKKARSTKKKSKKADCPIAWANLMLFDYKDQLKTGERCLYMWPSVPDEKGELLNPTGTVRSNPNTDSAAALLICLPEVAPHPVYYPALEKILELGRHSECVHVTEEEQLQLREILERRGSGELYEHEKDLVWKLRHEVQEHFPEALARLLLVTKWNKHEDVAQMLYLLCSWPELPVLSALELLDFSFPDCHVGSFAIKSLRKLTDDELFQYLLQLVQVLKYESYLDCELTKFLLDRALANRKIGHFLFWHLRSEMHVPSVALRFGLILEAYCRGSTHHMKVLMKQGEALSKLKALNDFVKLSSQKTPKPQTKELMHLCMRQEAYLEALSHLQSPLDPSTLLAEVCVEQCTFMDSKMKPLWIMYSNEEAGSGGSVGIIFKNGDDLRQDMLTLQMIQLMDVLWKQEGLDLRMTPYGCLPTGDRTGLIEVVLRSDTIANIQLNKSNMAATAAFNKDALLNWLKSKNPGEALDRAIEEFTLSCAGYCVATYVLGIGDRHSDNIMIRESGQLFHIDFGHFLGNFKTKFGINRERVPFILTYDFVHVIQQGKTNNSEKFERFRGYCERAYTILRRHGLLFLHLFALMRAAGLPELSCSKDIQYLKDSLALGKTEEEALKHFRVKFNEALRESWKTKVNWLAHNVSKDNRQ
Source text: (§1) The average percent kinase inhibition from replicate data was ranked low to high, converted to a compatible identifier format, then input into Coral Human Kinome Visualization software for presentation analysis. […] Scaling of evolutionary distance for PI kinases is only relative and is based on literature analysis[62],[63]. Average percent kinome inhibition values from replicate data are supplied in Source Data file. […] Corrected data was normalized to vehicle treated control values, and dose response percent kinase activity was analyzed by non-linear regression for determination of IC50 values.

[2] = molecular target: Target kinase isoforms (PI3K, mTOR, RAF, MEK) (Homo sapiens, UniProt P42336); experiment: as above; assay type: biochemical; conditions: PI3K alpha
Source text: as §1

[3] = molecular target: Target kinase isoforms (PI3K, mTOR, RAF, MEK) (Homo sapiens, UniProt P42338); experiment: as above; assay type: biochemical; conditions: PI3K beta
Source text: as §1

[4] = molecular target: Target kinase isoforms (PI3K, mTOR, RAF, MEK) (Homo sapiens, UniProt P48736); experiment: as above; assay type: biochemical; conditions: PI3K gamma
Source text: as §1

[5] = Pharmacokinetic analysis of plasma after intravenous and oral dosing
[6] = concentration 0.0187 nM, 18.7 pM
[7] = concentration 0.495 nM, 0.000495 µM
[8] = concentration 4.57 nM, 0.00457 µM
[9] = concentration 1.52 nM, 0.00152 µM

Chain of Target kinase isoforms (PI3K, mTOR, RAF, MEK) (Homo sapiens, UniProt P42338) (P42338 whole entry, canonical isoform): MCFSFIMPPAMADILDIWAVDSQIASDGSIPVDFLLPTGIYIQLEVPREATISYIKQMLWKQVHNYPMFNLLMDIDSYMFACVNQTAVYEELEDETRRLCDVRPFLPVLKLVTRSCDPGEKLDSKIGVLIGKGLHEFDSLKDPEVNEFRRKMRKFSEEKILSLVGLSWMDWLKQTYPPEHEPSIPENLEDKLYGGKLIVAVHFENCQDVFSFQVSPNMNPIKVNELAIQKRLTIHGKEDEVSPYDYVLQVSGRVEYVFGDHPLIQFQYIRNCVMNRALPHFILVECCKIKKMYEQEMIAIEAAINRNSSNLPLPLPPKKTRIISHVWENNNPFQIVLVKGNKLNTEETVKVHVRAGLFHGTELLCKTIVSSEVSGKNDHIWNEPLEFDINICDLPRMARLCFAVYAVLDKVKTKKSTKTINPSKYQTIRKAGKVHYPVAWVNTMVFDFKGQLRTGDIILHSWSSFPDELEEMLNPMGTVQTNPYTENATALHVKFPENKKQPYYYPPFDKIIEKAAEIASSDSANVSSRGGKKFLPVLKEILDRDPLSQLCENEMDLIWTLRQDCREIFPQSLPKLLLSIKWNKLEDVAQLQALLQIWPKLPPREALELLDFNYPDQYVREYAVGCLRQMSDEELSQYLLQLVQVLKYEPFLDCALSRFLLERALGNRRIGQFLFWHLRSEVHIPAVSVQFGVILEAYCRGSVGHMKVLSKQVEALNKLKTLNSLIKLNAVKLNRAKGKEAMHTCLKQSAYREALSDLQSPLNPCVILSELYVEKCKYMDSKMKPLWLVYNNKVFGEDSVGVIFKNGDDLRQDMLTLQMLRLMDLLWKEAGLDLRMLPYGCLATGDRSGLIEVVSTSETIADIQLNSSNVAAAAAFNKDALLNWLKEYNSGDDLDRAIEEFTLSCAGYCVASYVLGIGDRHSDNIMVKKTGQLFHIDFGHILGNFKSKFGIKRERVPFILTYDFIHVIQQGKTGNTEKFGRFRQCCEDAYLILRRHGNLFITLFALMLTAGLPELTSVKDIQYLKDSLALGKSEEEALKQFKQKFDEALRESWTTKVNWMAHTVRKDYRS
Chain of Target kinase isoforms (PI3K, mTOR, RAF, MEK) (Homo sapiens, UniProt P42336) (P42336 whole entry, canonical isoform): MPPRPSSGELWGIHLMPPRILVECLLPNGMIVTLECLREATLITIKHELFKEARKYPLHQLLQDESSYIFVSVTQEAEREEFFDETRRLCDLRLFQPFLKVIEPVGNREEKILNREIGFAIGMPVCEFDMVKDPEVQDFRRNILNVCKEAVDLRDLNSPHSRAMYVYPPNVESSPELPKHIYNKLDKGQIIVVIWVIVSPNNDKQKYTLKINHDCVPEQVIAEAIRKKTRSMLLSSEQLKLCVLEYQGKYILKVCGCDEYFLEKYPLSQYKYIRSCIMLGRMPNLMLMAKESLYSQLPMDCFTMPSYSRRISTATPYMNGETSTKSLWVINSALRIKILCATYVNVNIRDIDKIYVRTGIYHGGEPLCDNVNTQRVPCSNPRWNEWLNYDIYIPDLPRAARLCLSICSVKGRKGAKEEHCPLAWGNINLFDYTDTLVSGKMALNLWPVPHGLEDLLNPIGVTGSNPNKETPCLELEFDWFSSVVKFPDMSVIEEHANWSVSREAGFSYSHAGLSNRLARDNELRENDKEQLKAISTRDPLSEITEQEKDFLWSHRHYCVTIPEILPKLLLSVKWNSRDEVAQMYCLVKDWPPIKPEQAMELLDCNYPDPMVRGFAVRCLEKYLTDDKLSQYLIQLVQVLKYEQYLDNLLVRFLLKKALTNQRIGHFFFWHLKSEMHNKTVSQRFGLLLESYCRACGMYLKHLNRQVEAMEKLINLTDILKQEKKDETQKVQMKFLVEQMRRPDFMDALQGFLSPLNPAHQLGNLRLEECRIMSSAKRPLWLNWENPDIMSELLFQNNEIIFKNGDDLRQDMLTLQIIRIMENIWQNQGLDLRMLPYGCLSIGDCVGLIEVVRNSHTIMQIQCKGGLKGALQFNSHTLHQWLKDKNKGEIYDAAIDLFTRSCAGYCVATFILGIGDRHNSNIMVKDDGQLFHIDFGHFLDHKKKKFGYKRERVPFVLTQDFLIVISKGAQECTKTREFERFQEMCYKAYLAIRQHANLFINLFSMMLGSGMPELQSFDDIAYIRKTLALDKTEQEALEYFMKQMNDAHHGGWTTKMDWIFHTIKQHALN
Chain of Target kinase isoforms (PI3K, mTOR, RAF, MEK) (Homo sapiens, UniProt P48736) (P48736 whole entry, canonical isoform): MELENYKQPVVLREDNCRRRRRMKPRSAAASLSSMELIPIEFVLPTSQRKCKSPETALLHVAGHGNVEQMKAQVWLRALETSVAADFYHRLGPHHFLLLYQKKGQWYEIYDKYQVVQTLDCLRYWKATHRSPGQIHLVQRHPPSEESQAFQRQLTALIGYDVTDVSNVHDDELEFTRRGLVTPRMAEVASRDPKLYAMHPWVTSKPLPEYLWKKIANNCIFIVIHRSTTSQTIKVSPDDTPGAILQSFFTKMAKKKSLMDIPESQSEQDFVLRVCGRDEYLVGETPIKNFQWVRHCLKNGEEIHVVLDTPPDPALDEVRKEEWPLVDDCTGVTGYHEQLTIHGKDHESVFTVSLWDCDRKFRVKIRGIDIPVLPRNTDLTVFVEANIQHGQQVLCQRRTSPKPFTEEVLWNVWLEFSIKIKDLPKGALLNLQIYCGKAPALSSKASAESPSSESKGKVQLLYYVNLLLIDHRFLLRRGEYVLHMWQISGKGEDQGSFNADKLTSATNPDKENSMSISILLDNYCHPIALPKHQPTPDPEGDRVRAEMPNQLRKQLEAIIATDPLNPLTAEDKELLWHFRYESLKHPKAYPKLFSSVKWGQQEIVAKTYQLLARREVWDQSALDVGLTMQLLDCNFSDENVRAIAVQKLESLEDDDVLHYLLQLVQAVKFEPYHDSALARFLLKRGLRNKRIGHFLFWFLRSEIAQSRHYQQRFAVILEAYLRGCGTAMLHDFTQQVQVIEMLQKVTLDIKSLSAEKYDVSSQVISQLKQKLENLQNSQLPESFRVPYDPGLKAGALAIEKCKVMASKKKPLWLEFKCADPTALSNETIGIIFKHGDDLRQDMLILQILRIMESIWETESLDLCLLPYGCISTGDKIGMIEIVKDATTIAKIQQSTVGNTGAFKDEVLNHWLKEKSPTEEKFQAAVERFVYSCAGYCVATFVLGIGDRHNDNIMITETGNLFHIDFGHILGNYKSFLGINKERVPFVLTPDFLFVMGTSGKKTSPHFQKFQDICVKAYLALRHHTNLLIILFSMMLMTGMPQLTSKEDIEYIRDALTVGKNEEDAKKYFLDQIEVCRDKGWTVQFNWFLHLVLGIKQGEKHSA

For COc1ncc(-c2ccc3nccc(-c4ccnnc4)c3c2)cc1NS(=O)(=O)c1ccc(F)cc1F [GSK2126458], the activity at 670 fM ([1]; concentration 0.00067 nM) was 113%, the “Kinase Activity (%) PI3K delta” value ([1]; concentration 0.00067 nM, 670 fM) was 102% and the activity at 18.7 pM ([1]; concentration 0.0187 nM) was 97%. For the same compound, the “Kinase Activity (%) PI3K delta” value [1, 6] was 108%, the activity at 56.2 pM ([1]; concentration 0.0562 nM) was 81% and the “Kinase Activity (%) PI3K delta” value [1, 7] was 16% and 14% and 11% and 8%. For the same compound, the “Kinase Activity (%) PI3K delta” value [1, 8] was 6%, the activity at 0.0412 µM ([1]; concentration 41.2 nM) was 4% and the activity at 0.123 µM ([1]; concentration 123 nM) was 4%. For the same compound, the activity at […] ([1]; concentration 370 nM) was 4%, the activity at 1.11 µM ([1]; concentration 1110 nM) was 4% and the “Kinase Activity (%) PI3K delta” value ([1]; concentration 1110 nM, 1.11 µM) was 6%. The activity at 3.33 µM ([1]; concentration 3330 nM) was 5%, the “Kinase Activity (%) PI3K delta” value ([1]; concentration 3330 nM, 3.33 µM) was 6% and 7% and the “Kinase Activity (%) PI3K delta” value ([1]; concentration 10000 nM, 10 µM) was 7% and 0%. For the same compound, the activity at 2.04 pM ([1]; concentration […]) was 103%, the activity at 6.09 pM ([1]; concentration […]) was 104% and the “Kinase Activity (%) PI3K delta” value ([1]; concentration […], 2.04 pM) was 105%. For the same compound, the “Kinase Activity (%) PI3K delta” value ([1]; concentration […], 6.09 pM) was 106%, the activity at 670 fM ([2]; concentration 0.000670 nM) was 105% and the “Kinase Activity (%) PI3K alpha” value ([2]; concentration 0.00209 nM, 2.09 pM) was 101%. The activity at 18.8 pM ([2]; concentration 0.0188 nM) was 91%, the “Kinase Activity (%) PI3K alpha” value ([2]; concentration 0.0188 nM, 18.8 pM) was 89% and the activity at 56.4 pM ([2]; concentration 0.0564 nM) was 73%. The “Kinase Activity (%) PI3K alpha” value ([2]; concentration 0.0564 nM, 56.4 pM) was 75%, the activity at 0.000495 µM ([2]; concentration 0.495 nM) was 15% and the “Kinase Activity (%) PI3K alpha” value [2, 7] was 17% and 18% and 16% and 20%. The activity at 0.00152 µM ([2]; concentration 1.52 nM) was 4%, the “Kinase Activity (%) PI3K alpha” value [2, 9] was 5% and 6% and the “Kinase Activity (%) PI3K alpha” value [2, 8] was 1%. It also gave an activity at 0.0412 µM ([2]; concentration 41.2 nM) of 0%, an activity at 0.123 µM ([2]; concentration 123 nM) of 0% and an activity at […] ([2]; concentration 370 nM) of 0%. For the same compound, the activity at 1.11 µM ([2]; concentration 1110 nM) was 0%, the “Kinase Activity (%) PI3K alpha” value ([2]; concentration 10000 nM, 10 µM) was 1% and the activity at 18.7 pM ([3]; concentration 0.0187 nM) was 103%. The “Kinase Activity (%) PI3K beta” value [3, 6] was 108%, the activity at 56.2 pM ([3]; concentration 0.0562 nM) was 110% and the “Kinase Activity (%) PI3K beta” value ([3]; concentration 0.0562 nM, 56.2 pM) was 106%. For the same compound, the “Kinase Activity (%) PI3K beta” value [3, 7] was 72% and 62% and 60% and 71% and 65% and 84%, the “Kinase Activity (%) PI3K beta” value [3, 9] was 48% and 51% and 47% and 67% and 62% and the activity at 0.0412 µM ([3]; concentration 41.2 nM) was 9%. For the same compound, the “Kinase Activity (%) PI3K beta” value ([3]; concentration 41.2 nM, 0.0412 µM) was 7% and 8% and 10%, the activity at 0.123 µM ([3]; concentration 123 nM) was 9% and the “Kinase Activity (%) PI3K beta” value ([3]; concentration 123 nM, 0.123 µM) was 6% and 10% and 8% and 7%. The activity at […] ([3]; concentration 370 nM) was 12%, the activity at 1.11 µM ([3]; concentration 1110 nM) was 9% and the “Kinase Activity (%) PI3K beta” value ([3]; concentration 1110 nM, 1.11 µM) was 8%. For the same compound, the activity at 3.33 µM ([3]; concentration 3330 nM) was 11%, the “Kinase Activity (%) PI3K beta” value ([3]; concentration 3330 nM, 3.33 µM) was 10% and the activity at 2.04 pM ([3]; concentration […]) was 107%. For the same compound, the activity at 0.00152 µM ([4]; concentration 1.52 nM) was 19%, the “Kinase Activity (%) PI3K gamma” value [4, 9] was 24% and 22% and 20% and 21% and the activity at 0.0412 µM ([4]; concentration 41.2 nM) was 0%. For the same compound, the activity at 0.123 µM ([4]; concentration 123 nM) was 0%, the “Kinase Activity (%) PI3K gamma” value ([4]; concentration 370 nM, […]) was 1% and the activity at 1.11 µM ([4]; concentration 1110 nM) was 0%. The activity at 3.33 µM ([4]; concentration 3330 nM) was 0%, the “Kinase Activity (%) PI3K gamma” value ([4]; concentration 10000 nM, 10 µM) was 5% and the “Kinase Activity (%) PI3K gamma” value ([4]; concentration […], 6.09 pM) was 103%.

For O=C(O)CCOCCOCCOCCONC(=O)c1ccc(F)c(F)c1Nc1ccc(I)cc1F [LP-622, 1-(3,4-difluoro-2-((2-fluoro-4-iodophenyl)amino)phenyl)-1-oxo-3,6,9,12-tetraoxa-2-azapentadecan-15-oic acid], the Concentration ([5]; Supplementary Figure 6a, i.v., Time 0.167 h, individual replicates) was 6.65 ng/mL and 5.91 ng/mL, the Concentration ([5]; Supplementary Figure 6a, p.o., Time 0.167 h, individual replicates) was 36.6 ng/mL and 47.3 ng/mL and 12.7 ng/mL and the Concentration ([5]; Supplementary Figure 6a, p.o., Time 0.5 h, individual replicates) was 11.6 ng/mL and 6.25 ng/mL. The Concentration ([5]; Supplementary Figure 6a, p.o., Time 1 h, individual replicates) was 8.93 ng/mL and 16.9 ng/mL and 5.41 ng/mL, the concentration at 0.167 h ([5]; female, CD-1, mouse, plasma, iv, 15 mg kg^−1, Concentration, Supplementary Figure 6a, Time 0.167 h, individual replicates) was 9.48 ng/mL and the concentration at 0.5 h ([5]; female, CD-1, mouse, plasma, iv, 15 mg kg^−1, Concentration, Time 0.5 h, individual animals, Supplementary Figure 12b) was 642 ng/mL. For the same compound, the concentration at 1 h ([5]; female, CD-1, mouse, plasma, iv, 15 mg kg^−1, Concentration, Time 1 h, individual animals, Supplementary Figure 12b) was 694 ng/mL, the concentration at 2 h ([5]; female, CD-1, mouse, plasma, iv, 15 mg kg^−1, Concentration, Time 2 h, individual animals, Supplementary Figure 12b) was 122 ng/mL and the concentration at 4 h ([5]; female, CD-1, mouse, plasma, iv, 15 mg kg^−1, Concentration, Time 4 h, individual animals, Supplementary Figure 12b) was 36.6 ng/mL. It also gave a concentration at 7 h ([5]; female, CD-1, mouse, plasma, iv, 15 mg kg^−1, Concentration, Time 7 h, individual animals, Supplementary Figure 12b) of 23.1 ng/mL, a concentration at 16 h ([5]; female, CD-1, mouse, plasma, iv, 15 mg kg^−1, Concentration, Time 16 h, individual animals, Supplementary Figure 12b) of 1.67 ng/mL and a concentration at 24 h ([5]; female, CD-1, mouse, plasma, iv, 15 mg kg^−1, Concentration, Time 24 h, individual animals, Supplementary Figure 12b) of 3.48 ng/mL. The concentration at 0.5 h ([5]; female, CD-1, mouse, plasma, po, 400 mg kg^−1, Concentration, Supplementary Figure 6a, Time 0.5 h, individual replicates) was 8.5 ng/mL, the concentration at 2 h ([5]; female, CD-1, mouse, plasma, po, 400 mg kg^−1, Concentration, Supplementary Figure 6a, Time 2 h, individual replicates) was 3.37 ng/mL and the Concentration ([5]; i.v., Time 0.167 h, individual animals, Supplementary Figure 12b) was 6980 ng/mL and 3600 ng/mL and 9800 ng/mL. For the same compound, the Concentration ([5]; i.v., Time 0.5 h, individual animals, Supplementary Figure 12b) was 950 ng/mL and 1228 ng/mL, the Concentration ([5]; i.v., Time 1 h, individual animals, Supplementary Figure 12b) was 1082 ng/mL and the Concentration ([5]; i.v., Time 2 h, individual animals, Supplementary Figure 12b) was 115.8 ng/mL and 191 ng/mL. For the same compound, the Concentration ([5]; i.v., Time 4 h, individual animals, Supplementary Figure 12b) was 46.7 ng/mL and 58.4 ng/mL, the Concentration ([5]; i.v., Time 7 h, individual animals, Supplementary Figure 12b) was 33.2 ng/mL and 30.9 ng/mL and the Concentration ([5]; i.v., Time 16 h, individual animals, Supplementary Figure 12b) was 1.98 ng/mL. The Concentration ([5]; i.v., Time 24 h, individual animals, Supplementary Figure 12b) was 2.84 ng/mL and 3.15 ng/mL, the Concentration ([5]; p.o., Time 0.167 h, individual animals, Supplementary Figure 12b) was 470 ng/mL and 532 ng/mL and 956 ng/mL and the Concentration ([5]; p.o., Time 0.5 h, individual animals, Supplementary Figure 12b) was 3100 ng/mL and 1908 ng/mL and 6600 ng/mL. For the same compound, the Concentration ([5]; p.o., Time 1 h, individual animals, Supplementary Figure 12b) was 1430 ng/mL and 460 ng/mL and 669 ng/mL, the Concentration ([5]; p.o., Time 2 h, individual animals, Supplementary Figure 12b) was 1190 ng/mL and 582 ng/mL and 3880 ng/mL and the Concentration ([5]; p.o., Time 4 h, individual animals, Supplementary Figure 12b) was 221 ng/mL and 348 ng/mL and 1410 ng/mL. For the same compound, the Concentration ([5]; p.o., Time 7 h, individual animals, Supplementary Figure 12b) was 1250 ng/mL and 340 ng/mL and 726 ng/mL, the Concentration ([5]; p.o., Time 16 h, individual animals, Supplementary Figure 12b) was 461 ng/mL and 352 ng/mL and 189 ng/mL and the Concentration ([5]; p.o., Time 24 h, individual animals, Supplementary Figure 12b) was 55.8 ng/mL and 114 ng/mL and 252 ng/mL.
